Measured values taken from patent US20250122225A1, “MASP-2 INHIBITORS AND METHODS OF USE” (Omeros Corporation, priority 2023, published 2025).
Counter-ions that a name gives are not always drawn.

What was measured:
human α-thrombin = target: T1, human α-thrombin (Homo sapiens, UniProt P00734); test: Enzymatic assay for thrombin (fluorogenic peptide substrate Boc-VPR-AMC); assay type: biochemical
T1 construct: enzyme (human α-thrombin (BioPharm® Lab.)) in assay buffer; purchased BioPharm® Lab
Method in brief: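 Assay conditions kept the reaction linear in time, enzyme and substrate, so IC50 approximated Ki apart from tight- or slow-binding cases. Boc-VPR-AMC cleavage by human α-thrombin proceeded 20 min at room temperature in Hepes pH 7.4/NaCl/Tween 20 buffer, then was acid-quenched and read by fluorescence.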

MASP-2 (CCP1-CCP2-SP) = target: T2, MASP-2 (CCP1-CCP2-SP) (Homo sapiens, UniProt O00187); test: Enzymatic assay for MASP-2 inhibitory activity (fluorogenic substrate); assay type: biochemical
T2 construct: 15 μL of Enzyme MASP-2 (CCP1-CCP2-SP) in Assay Buffer
T2 sequence (O00187 445-686 limits assumed): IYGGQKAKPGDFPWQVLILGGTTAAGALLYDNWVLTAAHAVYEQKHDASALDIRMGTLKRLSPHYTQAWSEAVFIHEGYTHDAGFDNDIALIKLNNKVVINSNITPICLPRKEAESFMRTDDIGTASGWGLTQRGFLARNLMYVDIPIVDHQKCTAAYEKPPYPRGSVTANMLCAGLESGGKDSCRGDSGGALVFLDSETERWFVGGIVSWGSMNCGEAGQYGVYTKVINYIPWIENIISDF
T2 sequence (O00187 287-444 partner limits assumed): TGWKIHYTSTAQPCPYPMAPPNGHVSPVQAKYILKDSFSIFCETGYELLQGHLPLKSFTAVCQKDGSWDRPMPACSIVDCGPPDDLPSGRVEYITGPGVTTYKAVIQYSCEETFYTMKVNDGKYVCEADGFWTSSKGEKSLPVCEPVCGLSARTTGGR
Method in brief: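 Fluorescence was normalized between no-enzyme and DMSO-only controls to derive % activity, with IC50 taken as equivalent to Ki except for tight-binding inhibitors. Reactions ran 20 min at room temperature in HEPES pH 7.4/NaCl/Tween 20 buffer, using the C2-derived fluorogenic substrate, before acetic acid stop.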

Ki (human α-thrombin) [nM] | Ki (MASP-2 (CCP1-CCP2-SP)) [nM] | Compound
10000 to 25000 | < 500 | CC[C@H]1C[C@@H](C(=O)NCc2cc3cnc(C)cc3[nH]2)n2c1cnc(NCc1cc(C)cc(C)c1)c2=O [Compound 129, (6S,8S)-3-((3,5-dimethylbenzyl)amino)-8-ethyl-N-((6-methyl-1H-pyrrolo[3,2-c]pyridin-2-yl)methyl)-4-oxo-4,6,7,8-tetrahydropyrrolo[1,2-a]pyrazine-6-carboxamide]
2500 to 10000 | < 500 | COc1cc(C)cc(CNc2ncc3n(c2=O)[C@@H](C(=O)NCc2cc4cnccc4[nH]2)CC3)c1 [Compound 164]
< 500 | < 500 | CC(C)[C@@H](Nc1ncc2n(c1=O)[C@H](C(=O)NCc1cc3c(s1)CNC3)CC2)c1ccccc1 [Compound 255]
< 500 | < 500 | COc1cc(C)cc(CNc2ncc3n(c2=O)[C@H](C(=O)NCc2ccc(N)nc2C)C[C@@H]3Cc2ccccc2)c1 [Compound 138, (6S,8S)-N-((6-amino-2-methylpyridin-3-yl)methyl)-8-benzyl-3-((3-methoxy-5-methylbenzyl)amino)-4-oxo-4,6,7,8-tetrahydropyrrolo[1,2-a]pyrazine-6-carboxamide]
< 500 | < 500 | Cc1cc(C)cc(CNc2ncc3n(c2=O)[C@H](C(=O)NCc2cc(Cl)ccc2-n2cnnn2)CC3)c1 [Compound 284, (S)-N-(5-chloro-2-(1H-tetrazol-1-yl)benzyl)-3-((3,5-dimethylbenzyl)amino)-4-oxo-4,6,7,8-tetrahydropyrrolo[1,2-a]pyrazine-6-carboxamide]
< 500 | < 500 | Cc1ccc(F)c(CNc2ncc3n(c2=O)[C@H](C(=O)NCc2ccc(N)nc2)CC3)c1 [Compound 79, (S)-N-((6-aminopyridin-3-yl)methyl)-3-((2-fluoro-5-methylbenzyl)amino)-4-oxo-4,6,7,8-tetrahydropyrrolo[1,2-a]pyrazine-6-carboxamide]
500 to 2500 | 500 to 2500 | Cc1cc(F)cc(CNc2ncc3n(c2=O)[C@H](C(=O)NCc2ccc(N)c(F)c2)CC3)c1 [Compound 184, (S)-N-(4-amino-3-fluorobenzyl)-3-((3-fluoro-5-methylbenzyl)amino)-4-oxo-4,6,7,8-tetrahydropyrrolo[1,2-a]pyrazine-6-carboxamide]
< 500 | < 500 | Cc1ccccc1[C@@H](C)Nc1ncc2n(c1=O)[C@H](C(=O)NCc1cc3cnccc3[nH]1)CC2 [Compound 81, (S)-N-((1H-pyrrolo[3,2-c]pyridin-2-yl)methyl)-4-oxo-3-(((R)-1-(0-tolyl)ethyl)amino)-4,6,7,8-tetrahydropyrrolo[1,2-a]pyrazine-6-carboxamide]
2500 to 10000 | < 500 | Cc1cc(F)cc(CNc2ncc3n(c2=O)[C@H](C(=O)NCc2ccc(CN)cc2C)CC3)c1 [Compound 205, (S)—N-(4-(aminomethyl)-2-methylbenzyl)-3-((3-fluoro-5-methylbenzyl)amino)-4-oxo-4,6,7,8-tetrahydropyrrolo[1,2-a]pyrazine-6-carboxamide trifluoroacetate]
> 25000 | 2500 to 10000 | Cc1cc(C)cc(CNc2nc(Cl)c3n(c2=O)[C@H](C(=O)NCc2cccnc2C)CC3)c1 [Compound 89, trifluoroacetate]
< 500 | < 500 | CC[C@@H](Nc1ncc2n(c1=O)[C@H](C(=O)NCc1cc3c(s1)CNC3)CC2)c1ccccc1 [Compound 234]
2500 to 10000 | < 500 | O=C(NCc1cc2c(s1)CNC2)[C@@H]1CCc2c(Cl)nc(NCc3cccc(C(F)F)c3)c(=O)n21 [Compound 34, (S)-1-chloro-3-((3-(difluoromethyl)benzyl)amino)-N-((5,6-dihydro-4H-thieno[2,3-c]pyrrol-2-yl)methyl)-4-oxo-4,6,7,8-tetrahydropyrrolo[1,2-a]pyrazine-6-carboxamide]
< 500 | < 500 | Cc1cc(C)cc(CNc2ncc3n(c2=O)[C@H](C(=O)NCc2cc4c(s2)CNC4)CC3)c1 [Compound 96, (S)-N-((5,6-dihydro-4H-thieno[2,3-c]pyrrol-2-yl)methyl)-3-((3,5-dimethylbenzyl)amino)-4-oxo-4,6,7,8-tetrahydropyrrolo[1,2-a]pyrazine-6-carboxamide]
< 500 | < 500 | Cc1nc(N)ccc1CNC(=O)[C@@H]1CCc2cnc(NCc3cccc(-c4ccccc4)c3)c(=O)n21 [Compound 220, (S)-3-(([1,1′-biphenyl]-3-ylmethyl)amino)-N-((6-amino-2-methylpyridin-3-yl)methyl)-4-oxo-4,6,7,8-tetrahydropyrrolo[1,2-a]pyrazine-6-carboxamide trifluoroacetate]
< 500 | < 500 | Cc1nc(N)ccc1CNC(=O)[C@@H]1CCc2cnc(NCc3cccc(C(C)C)c3)c(=O)n21 [Compound 208]
> 25000 | < 500 | O=C(NCc1cc2cnccc2[nH]1)[C@@H]1CCc2c(Cl)nc(NCC3CCOCC3)c(=O)n21 [Compound 101, trifluoroacetate]
500 to 2500 | < 500 | Cc1cc(F)cc(CNc2ncc3n(c2=O)[C@H](C(=O)NCc2cc4cnccc4[nH]2)CC3)c1 [Compound 70, (S)-N-((1H-pyrrolo[3,2-c]pyridin-2-yl)methyl)-3-((3-fluoro-5-methylbenzyl)amino)-4-oxo-4,6,7,8-tetrahydropyrrolo[1,2-a]pyrazine-6-carboxamide]
> 25000 | < 500 | CC[C@H]1C[C@@H](C(=O)NCc2cc3cnccc3[nH]2)n2c1c(Cl)nc(NCc1cc(C)cc(C)c1)c2=O [Compound 160, (6S,8S)-N-((1H-pyrrolo[3,2-c]pyridin-2-yl)methyl)-1-chloro-3-((3,5-dimethylbenzyl)amino)-8-ethyl-4-oxo-4,6,7,8-tetrahydropyrrolo[1,2-a]pyrazine-6-carboxamide]
500 to 2500 | < 500 | Cc1ccc(C)c(CNc2nc(Cl)c3n(c2=O)[C@H](C(=O)NCc2ccc(N)nc2C)CC3)c1 [Compound 10, (S)-N-((6-amino-2-methylpyridin-3-yl)methyl)-1-chloro-3-((2,5-dimethylbenzyl)amino)-4-oxo-4,6,7,8-tetrahydropyrrolo[1,2-a]pyrazine-6-carboxamide]
> 25000 | < 500 | Cc1cc2[nH]c(CNC(=O)[C@@H]3CCc4cnc(NCc5cccc(C)c5C)c(=O)n43)cc2cn1 [Compound 58, (S)-3-((2,3-dimethylbenzyl)amino)-N-((6-methyl-1H-pyrrolo[3,2-c]pyridin-2-yl)methyl)-4-oxo-4,6,7,8-tetrahydropyrrolo[1,2-a]pyrazine-6-carboxamide]
2500 to 10000 | < 500 | Cc1ccccc1CNc1nc(Cl)c2n(c1=O)[C@H](C(=O)NCc1cc3cnccc3[nH]1)CC2 [Compound 9, (S)-N-((1H-pyrrolo[3,2-c]pyridin-2-yl)methyl)-1-chloro-3-((2-methylbenzyl)amino)-4-oxo-4,6,7,8-tetrahydropyrrolo[1,2-a]pyrazine-6-carboxamide]
2500 to 10000 | < 500 | Cc1ccc(F)c(CNc2ncc3n(c2=O)[C@H](C(=O)N[C@H](C)c2ccc(N)nc2)CC3)c1 [Compound 199, (S)-N-((R)-1-(6-aminopyridin-3-yl)ethyl)-3-((2-fluoro-5-methylbenzyl)amino)-4-oxo-4,6,7,8-tetrahydropyrrolo[1,2-a]pyrazine-6-carboxamide trifluoroacetate]
